Results on one compound are retold here after ChEMBL document CHEMBL2029324, “A small molecule regulates hairpin structures in d(CGG) trinucleotide repeats” (Bioorg Med Chem Lett, 2012).

SMILES strings stand for the structures. Active and inactive are the calls of the source. The calls are words filed in the database; no cut-off is given here.

Holding throughout (type): nucleic-acid assay
For experiment [1], the system named is Nucleic Acid. Kind of experiment: Binding affinity to d(CGG)10 DNA assessed as inhibition of Taq polymerase-mediated DNA replication.
The subject of experiment [2] is Nucleic Acid. As to the kind of experiment: Binding affinity to d(CGG)10 DNA assessed as formation of stable compound-DNA hairpin loop of the template at increasing compound concentration.
Experiment [3] deals with Nucleic Acid. As to the kind of experiment: Binding affinity to d(CGG)10 DNA assessed as inhibition of Taq polymerase at first and fifth part of the (CGG)10 repeat region from 3'-end of the template at 5 uM.
The subject of experiment [4] is Nucleic Acid. Kind of experiment: Binding affinity to d(CGG)10 DNA assessed as formation of compound-DNA hairpin loop of the template at low compound concentration.
Experiment [5] concerns Nucleic Acid. As to the kind of experiment: Binding affinity to d(CGG)10 DNA assessed as increase in strong positive peak by CD-UV analysis.
Experiment [6] concerns Nucleic Acid. Kind of experiment: Binding affinity to d(CGG)10 DNA assessed as decrease in signal intensity by CD-UV analysis.
Experiment [7] has as its system Nucleic Acid. As to the kind of experiment: Binding affinity to d(CGG)10 DNA assessed as thermal denaturation at 100 degC and 20 uM.
The test system of experiment [8] is Nucleic Acid. Kind of experiment: Binding affinity to d(CGG)10 DNA assessed as inhibition of Taq polymerase at first (CGG)10 repeat region from 3'-end of the template at increasing concentration.
Experiment [9] has as its system Nucleic Acid. As to the kind of experiment: Binding affinity to d(CGG)10 DNA assessed as hairpin loop formation at 1 to 30 uM by PAGE analysis.
Experiment [10] has as its system Nucleic Acid. As to the kind of experiment: Binding affinity to d(CCG)10 DNA assessed as increase in melting temperature at 5 to 20 uM.
The test system of experiment [11] is Nucleic Acid. As to the kind of experiment: Binding affinity to d(CCG)10 DNA assessed as inhibition of Taq polymerase-mediated DNA replication at 20 uM.
In experiment [12] the test system is Nucleic Acid. As to the kind of experiment: Binding affinity to d(CGG)10 DNA assessed as increase in positive induced CD at 5 to 20 uM by CD-UV analysis.
Experiment [13] has as its system Nucleic Acid. As to the kind of experiment: Binding affinity to d(CCG)10 DNA assessed as hairpin loop formation at 30 uM by PAGE analysis.

On to `Cc1ccc2ccc(NC(=O)OCCCNCCCOC(=O)Nc3ccc4ccc(C)nc4n3)nc2n1`, for which the Activity result with Nucleic Acid [1], in the experiment with Nucleic Acid [5] and in the experiment on Nucleic Acid [6] was “Dose-dependent effect” in each case. Moreover, the outcome in the experiment with Nucleic Acid [2], in the experiment on Nucleic Acid [3], in the experiment with Nucleic Acid [4], in the experiment on Nucleic Acid [8], with Nucleic Acid [9] and in the experiment on Nucleic Acid [12] was Active. Besides, the outcome in the experiment on Nucleic Acid [7], with Nucleic Acid [10], in the experiment on Nucleic Acid [11] and with Nucleic Acid [13] was inactive.
